Measured values reported in PubChem BioAssay (NCI).
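Assay format: 96-well plates, 48-hour exposure. TGI: total growth inhibition.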

Tested on: P388/ADR leukemia
Assay: NCI tumour cell line growth inhibition, 48 h

| SMILES | TGI |
| --- | --- |
| O=C(O)CCCc1ccc(N(CCCl)CCCl)cc1 | 154 µM |
| CC1(C)N=C(N)N=C(N)N1c1ccc(CCCCc2ccc(S(=O)(=O)F)cc2Cl)c(Cl)c1 | 7.56 µM |
